Laboratory results from patent publication US7655225B2, “Methods of expanding stem and progenitor cells and expanded cell populations obtained thereby” (Gamida Cell, Ltd., priority 2002, dated 2010).

What was measured:
Assay type in all cases: cell-based, human
CD34+ cells = assay: Morphological assessment of cultured CD34+ cells; details: 8-weeks culture; control: mainly differentiated cells; FIGS. 3a-b
Source text: (§1) Morphological assessment: In order to characterize the resulting culture populations, aliquots of cells were deposited on a glass slide (cytocentrifuge, Shandon, Runcorn, UK), fixed and stained in May-Grunwald and Giemsa stain.

mononuclear cells (MNC) [1] = assay: Colony-forming cells (CFUs) from mixed cells (MNC) culture; details: FIG. 18
Protocol: Self-renewal potential evaluations: The self-renewal potential of stem cells was determined in vitro by long-term colony formation. Cells were washed and seeded in a semi-solid methylcellulose medium supplemented with 2 IU/ml erythropoietin (Eprex, Cilage AG Int., Switzerland), stem cell factor and IL-3, both at 20 ng/ml (Perpo Tech), and G-CSF and GM-CSF, both at 10 ng/ml (Perpo Tech). The resulting colonies were scored after two weeks of incubation at 37° C. in a humidified atmosphere of 5% CO2 in air. Colonies were classified as blast, mixed, erythroid, myeloid, and megakaryocytic, according to their cellular composition.
Ex vivo expansion of progenitor cells: The non-purified mononuclear cells (MNC), obtained as described hereinabove, were seeded in Culture Bags (American Fluoroseal Corp.), with alpha minimal essential medium supplemented with 10% fetal bovine serum (FBS, Biological Industries), at a concentration of about 10^6 cells/ml. The purified CD34^+ cells were similarly seeded in the Culture Bags, at a concentration of […]. The media were supplemented with TEPA chelator and/or with the following human recombinant cytokines (all obtained from Perpo Tech, Inc., Rocky Hill, N.J.): Thrombopoietin (TPO), 50 ng/ml; interleukin 6 (IL-6), 50 ng/ml; FLT-3 ligand, 50 ng/ml and a stem cell factor (SCF), 50 ng/ml; occasionally SCF was replaced by IL-3, 20 ng/ml. […]

mononuclear cells (MNC) [2] = assay: Morphological analysis of cells from long-term MNC cultures; details: untreated: fully differentiated
Protocol: as §1, with “stain. Cloning potential evaluation, morphological assessment and surface antigen analyses were carried out as described in the experimental procedures section of Example 1 above.” for “stain.”

SMILES	morphological analysis of culture (CD34+ cells)	number of CD34+ CFUs (mononuclear cells (MNC) [1]; after 2 weeks)	number of CD34+ CFUs (mononuclear cells (MNC) [1]; after 10 weeks)	morphological analysis of cells (mononuclear cells (MNC) [2])
NCCNCCNCCNCCN.[Cl-].[Cl-].[Cu+2] [TEPA-Cu chelate, tetraethylenepentamine-copper chelate]	mainly blast-like cells			
NCCNCCNCCNCCN [TEPA chelator, tetraethylenepentamine]		non-detectable	3.2×10^7 cells/ml	high proportion of non-differentiated cells
